Source: US5965622A, “Desformoterol and process for its preparation” (Sepracor Inc., priority 1998, dated 1999)
“Also recorded” adds a separate entry of the source. Like-named read-outs stand apart in the source and are kept apart here.

Tests used:
[1] = biological target: human β1-adrenergic receptor (Homo sapiens, UniProt P08588); assay: binding to human β1-adrenergic receptor (competition curves)
Protocol: (§1) The four isomers of desformoterol, (R,R)-, (S,S)-, (R,S)-, and (S,R)-, and a 1:1 mixture of the (R,R)- and the (S,S)-enantiomers, were screened, in duplicate, at three concentrations (10^-9, 10^-7, 10^-5 M) for binding to human β1 and β2 -adrenergetic receptors. The compounds were then tested at ten concentrations in duplicate in order to obtain full competition curves. Reference compounds were simultaneously tested at eight concentrations.

[2] = biological target: human β2-adrenergic receptor (Homo sapiens, UniProt P07550); assay: binding to human β2-adrenergic receptor (competition curves); conditions: for adrenergic receptor agonist selectivity, in words: binding studies
Protocol: as §1

[3] = when inhaled; background statement; cited from earlier work
[4] = stability of desformoterol according to conditions; format: physicochemical; conditions: pH of the environment
Text: It has been observed that the stability of desformoterol can vary according to conditions.

[5] = human β1-adrenergic receptor, ten concentrations in duplicate (reference compounds eight), read-out: IC50 β1
[6] = human β2-adrenergic receptor, ten concentrations in duplicate (reference compounds eight), read-out: IC50 β2

Chain of human β1-adrenergic receptor (P08588 whole entry): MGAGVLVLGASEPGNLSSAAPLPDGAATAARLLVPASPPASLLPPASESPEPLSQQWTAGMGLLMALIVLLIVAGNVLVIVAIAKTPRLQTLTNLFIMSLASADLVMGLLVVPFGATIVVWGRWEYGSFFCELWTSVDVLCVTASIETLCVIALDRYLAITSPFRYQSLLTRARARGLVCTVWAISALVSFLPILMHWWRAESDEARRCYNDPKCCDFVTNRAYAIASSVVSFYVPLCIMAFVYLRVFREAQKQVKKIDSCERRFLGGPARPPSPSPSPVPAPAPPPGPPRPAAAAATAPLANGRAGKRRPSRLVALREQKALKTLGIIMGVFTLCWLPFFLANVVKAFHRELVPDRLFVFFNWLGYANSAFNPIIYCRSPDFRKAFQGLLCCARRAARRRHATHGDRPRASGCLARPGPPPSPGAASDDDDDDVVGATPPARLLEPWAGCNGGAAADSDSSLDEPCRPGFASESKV
Chain of human β2-adrenergic receptor (P07550 whole entry): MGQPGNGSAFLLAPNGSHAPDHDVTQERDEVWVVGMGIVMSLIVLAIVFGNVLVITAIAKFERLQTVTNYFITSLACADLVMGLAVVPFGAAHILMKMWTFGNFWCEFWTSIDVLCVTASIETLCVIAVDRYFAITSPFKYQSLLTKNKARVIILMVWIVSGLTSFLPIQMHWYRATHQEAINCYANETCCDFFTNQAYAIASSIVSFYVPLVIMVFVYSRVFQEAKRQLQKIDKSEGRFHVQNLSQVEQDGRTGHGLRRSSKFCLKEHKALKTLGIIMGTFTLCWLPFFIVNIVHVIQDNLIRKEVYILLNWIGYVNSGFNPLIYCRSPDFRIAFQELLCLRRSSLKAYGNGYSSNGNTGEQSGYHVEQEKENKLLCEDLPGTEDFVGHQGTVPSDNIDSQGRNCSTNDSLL

Compound	adrenergic receptor agonist selectivity, in words [2]	binding/affinity at β2 site, in words ([2]; human β2-adrenergic receptor)	IC50 [2, 6] [µM]	β1/β2 Selectivity ([2]; ratio of IC50 values β1/β2)	binding/affinity at β1 site, in words ([1]; human β1-adrenergic receptor)	other results
COc1ccc(C[C@@H](C)NC[C@H](O)c2ccc(O)c(N)c2)cc1 (relative stereo) [(R,R)-/(S,S)-Racemate of Desformoterol]	highly selective β-adrenergic receptor agonists	significant binding only at the β2 -site	0.0813	63		IC50 [1, 5]: 5.14 µM
COc1ccc(C[C@@H](C)NC[C@H](O)c2ccc(O)c(NC=O)c2)cc1 (relative stereo) [Formoterol]						bronchodilating effect, in words [3]: long lasting bronchodilating effect
COc1ccc(C[C@@H](C)NC[C@H](O)c2ccc(O)c(N)c2)cc1 [(R,R)-Desformoterol, (R,R)-3-amino-4-hydroxy-α-[[[2-(4-methoxyphenyl)-1-methylethyl]amino]methyl]-benzenemethanol]	highly selective β-adrenergic receptor agonists	significant binding primarily at the β2 -site		89		IC50 [1]: 3.18 µM; IC50 [2]: 0.0356 µM; selectivity (β1/β2) for the β2-receptor ([2]; ratio of IC50 values β1/β2): approximately 89 fold
COc1ccc(C[C@H](C)NC[C@H](O)c2ccc(O)c(N)c2)cc1 [(R,S)-Desformoterol]			3.14	< 1	Neither (R,S)- nor (S,R)-desformoterol showed high affinity for the β1 receptor; also recorded: comparable to that of atenolol at the β1 -site	IC50 [1, 5]: 1.79 µM
COc1ccc(C[C@@H](C)NC[C@@H](O)c2ccc(O)c(N)c2)cc1 [(S,R)-Desformoterol]			1.89		Neither (R,S)- nor (S,R)-desformoterol showed high affinity for the β1 receptor	inhibition at 10 µM ([1]; at 10^-5 M): 22%
COc1ccc(C[C@H](C)NC[C@@H](O)c2ccc(O)c(N)c2)cc1 [(S,S)-Desformoterol]		lacked affinity for both β-adrenergic sites		< 6	lacked affinity for both β-adrenergic sites	IC50 [1]: 64.7 µM; IC50 [2]: > 10 µM
COc1ccc(CC(C)NCC(O)c2ccc(O)c(N)c2)cc1 (stereo not drawn) [desformoterol, 3-Amino-4-hydroxy-α-[[[2-(4-methoxyphenyl)-1-methylethyl]amino]methyl]-benzenemethanol]	highly selective β2 -adrenergic receptor agonist					pH of maximum stability [4]: 2
